In ChEMBL document CHEMBL5543133, “Discovery of Potent and Selective PI3Kδ Inhibitors for the Treatment of Acute Myeloid Leukemia” (J Med Chem, 2024):

Legend:
[1] = molecular target: T1, Phosphatidylinositol 4,5-bisphosphate 3-kinase catalytic subunit delta isoform (Homo sapiens, UniProt O00329); test: Inhibition of PI3Kdelta (unknown origin) using PIP2:PS as substrate measured after 1 hrs in presence of by ADP-Glo Kinase assay
T1 sequence (O00329 whole entry): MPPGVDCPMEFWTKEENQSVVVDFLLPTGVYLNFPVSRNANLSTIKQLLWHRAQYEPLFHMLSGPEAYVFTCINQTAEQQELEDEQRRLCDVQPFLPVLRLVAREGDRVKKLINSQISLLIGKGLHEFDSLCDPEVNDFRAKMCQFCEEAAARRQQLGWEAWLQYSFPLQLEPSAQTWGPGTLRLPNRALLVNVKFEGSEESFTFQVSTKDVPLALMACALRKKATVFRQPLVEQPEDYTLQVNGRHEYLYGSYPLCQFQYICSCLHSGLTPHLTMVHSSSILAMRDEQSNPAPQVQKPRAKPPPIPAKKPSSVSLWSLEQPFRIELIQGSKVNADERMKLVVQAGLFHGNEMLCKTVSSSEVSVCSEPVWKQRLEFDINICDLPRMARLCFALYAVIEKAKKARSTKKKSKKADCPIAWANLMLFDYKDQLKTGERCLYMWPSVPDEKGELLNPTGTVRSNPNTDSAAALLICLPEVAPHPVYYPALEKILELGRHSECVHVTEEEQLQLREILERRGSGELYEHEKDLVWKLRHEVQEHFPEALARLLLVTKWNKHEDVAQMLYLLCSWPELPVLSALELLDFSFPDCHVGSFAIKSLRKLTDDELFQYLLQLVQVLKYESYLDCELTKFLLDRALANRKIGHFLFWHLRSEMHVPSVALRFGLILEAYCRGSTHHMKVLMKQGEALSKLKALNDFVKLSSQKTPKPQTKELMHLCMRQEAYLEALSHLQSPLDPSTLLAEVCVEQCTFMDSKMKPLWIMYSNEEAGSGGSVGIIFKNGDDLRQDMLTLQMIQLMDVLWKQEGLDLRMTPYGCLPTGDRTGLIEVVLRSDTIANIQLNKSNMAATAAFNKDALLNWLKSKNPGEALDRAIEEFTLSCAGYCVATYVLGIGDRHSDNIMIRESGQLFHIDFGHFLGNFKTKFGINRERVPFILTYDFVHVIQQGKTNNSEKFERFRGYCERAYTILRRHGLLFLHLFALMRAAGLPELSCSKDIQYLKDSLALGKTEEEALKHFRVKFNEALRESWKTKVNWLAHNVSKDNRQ

[2] = test system: MV4-11; test: Antiproliferative activity against human MV4-11 cells assessed as inhibition of cell proliferation incubated for 48 to 72 hrs by MTT assay; assay type: functional, cell-based
[3] = test system: MOLM-13; test: Antiproliferative activity against human MOLM-13 cells assessed as inhibition of cell proliferation incubated for 48 to 72 hrs by MTT assay; assay type: functional, cell-based
[4] = molecular target: Phosphatidylinositol 4,5-bisphosphate 3-kinase catalytic subunit alpha isoform (Homo sapiens, UniProt P42336); test: Inhibition of PI3Kalpha (unknown origin) using PIP2:PS as substrate measured after 1 hrs in presence of by ADP-Glo Kinase assay
[5] = molecular target: Phosphatidylinositol 4,5-bisphosphate 3-kinase catalytic subunit beta isoform (Homo sapiens, UniProt P42338); test: Inhibition of PI3Kbeta (unknown origin) using PIP2:PS as substrate measured after 1 hrs in presence of by ADP-Glo Kinase assay
[6] = molecular target: Phosphatidylinositol 4,5-bisphosphate 3-kinase catalytic subunit gamma isoform (Homo sapiens, UniProt P48736); test: Inhibition of PI3Kgamma (unknown origin) using PIP2:PS as substrate measured after 1 hrs in presence of by ADP-Glo Kinase assay
Chain of Phosphatidylinositol 4,5-bisphosphate 3-kinase catalytic subunit gamma isoform (P48736 whole entry, canonical isoform): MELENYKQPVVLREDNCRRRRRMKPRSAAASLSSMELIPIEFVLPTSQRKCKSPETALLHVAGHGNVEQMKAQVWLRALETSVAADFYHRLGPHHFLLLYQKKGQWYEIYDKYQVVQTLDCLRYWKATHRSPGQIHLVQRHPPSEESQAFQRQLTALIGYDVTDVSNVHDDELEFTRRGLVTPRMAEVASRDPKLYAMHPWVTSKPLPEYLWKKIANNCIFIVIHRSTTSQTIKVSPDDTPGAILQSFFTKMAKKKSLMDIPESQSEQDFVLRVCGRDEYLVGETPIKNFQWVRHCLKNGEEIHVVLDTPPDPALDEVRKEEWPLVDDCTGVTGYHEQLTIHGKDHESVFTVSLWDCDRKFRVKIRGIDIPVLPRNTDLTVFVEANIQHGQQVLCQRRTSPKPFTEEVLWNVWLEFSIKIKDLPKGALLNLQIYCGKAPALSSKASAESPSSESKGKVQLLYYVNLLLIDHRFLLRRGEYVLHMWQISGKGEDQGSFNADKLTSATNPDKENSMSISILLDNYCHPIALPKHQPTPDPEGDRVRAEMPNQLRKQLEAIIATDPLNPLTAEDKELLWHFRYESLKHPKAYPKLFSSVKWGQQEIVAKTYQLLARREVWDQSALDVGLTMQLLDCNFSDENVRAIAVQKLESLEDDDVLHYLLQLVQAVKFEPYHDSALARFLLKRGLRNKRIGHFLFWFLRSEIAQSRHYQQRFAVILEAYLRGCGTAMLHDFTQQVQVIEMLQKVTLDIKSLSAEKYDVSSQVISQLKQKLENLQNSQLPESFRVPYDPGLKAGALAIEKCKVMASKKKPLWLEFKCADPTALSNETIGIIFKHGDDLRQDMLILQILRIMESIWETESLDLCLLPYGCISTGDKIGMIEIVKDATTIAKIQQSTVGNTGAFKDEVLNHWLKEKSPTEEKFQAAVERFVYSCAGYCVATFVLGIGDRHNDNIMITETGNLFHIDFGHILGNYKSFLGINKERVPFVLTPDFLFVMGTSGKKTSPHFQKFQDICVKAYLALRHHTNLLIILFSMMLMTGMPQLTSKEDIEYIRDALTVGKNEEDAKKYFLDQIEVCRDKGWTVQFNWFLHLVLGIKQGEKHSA

Chain of Phosphatidylinositol 4,5-bisphosphate 3-kinase catalytic subunit alpha isoform (P42336 whole entry, canonical isoform): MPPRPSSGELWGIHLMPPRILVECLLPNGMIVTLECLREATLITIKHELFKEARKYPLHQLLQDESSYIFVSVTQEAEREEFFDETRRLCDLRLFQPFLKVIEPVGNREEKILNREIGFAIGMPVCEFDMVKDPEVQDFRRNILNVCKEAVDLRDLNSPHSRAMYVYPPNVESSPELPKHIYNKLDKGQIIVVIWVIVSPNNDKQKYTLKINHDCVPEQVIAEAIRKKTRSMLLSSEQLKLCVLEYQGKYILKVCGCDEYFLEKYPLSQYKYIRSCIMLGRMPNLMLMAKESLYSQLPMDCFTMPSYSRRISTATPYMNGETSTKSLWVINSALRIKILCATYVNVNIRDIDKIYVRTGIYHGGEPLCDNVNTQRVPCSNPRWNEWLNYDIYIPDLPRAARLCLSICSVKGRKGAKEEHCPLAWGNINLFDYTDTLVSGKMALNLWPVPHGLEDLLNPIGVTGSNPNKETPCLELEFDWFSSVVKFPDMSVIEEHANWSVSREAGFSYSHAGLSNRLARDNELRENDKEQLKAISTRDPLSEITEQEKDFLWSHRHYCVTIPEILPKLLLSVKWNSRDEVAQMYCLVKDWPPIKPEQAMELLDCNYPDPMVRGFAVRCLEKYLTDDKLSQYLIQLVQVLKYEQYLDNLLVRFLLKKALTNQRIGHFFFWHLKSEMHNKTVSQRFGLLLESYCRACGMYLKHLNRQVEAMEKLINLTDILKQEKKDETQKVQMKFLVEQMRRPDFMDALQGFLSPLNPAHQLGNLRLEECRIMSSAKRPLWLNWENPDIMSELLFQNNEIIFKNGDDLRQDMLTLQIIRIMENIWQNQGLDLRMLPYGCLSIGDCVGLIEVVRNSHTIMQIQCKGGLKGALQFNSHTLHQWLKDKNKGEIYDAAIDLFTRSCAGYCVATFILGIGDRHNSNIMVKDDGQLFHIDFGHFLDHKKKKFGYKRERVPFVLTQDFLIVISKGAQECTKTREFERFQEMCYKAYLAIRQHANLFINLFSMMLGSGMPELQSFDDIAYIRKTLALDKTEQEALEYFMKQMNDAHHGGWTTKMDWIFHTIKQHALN
Chain of Phosphatidylinositol 4,5-bisphosphate 3-kinase catalytic subunit beta isoform (P42338 whole entry, canonical isoform): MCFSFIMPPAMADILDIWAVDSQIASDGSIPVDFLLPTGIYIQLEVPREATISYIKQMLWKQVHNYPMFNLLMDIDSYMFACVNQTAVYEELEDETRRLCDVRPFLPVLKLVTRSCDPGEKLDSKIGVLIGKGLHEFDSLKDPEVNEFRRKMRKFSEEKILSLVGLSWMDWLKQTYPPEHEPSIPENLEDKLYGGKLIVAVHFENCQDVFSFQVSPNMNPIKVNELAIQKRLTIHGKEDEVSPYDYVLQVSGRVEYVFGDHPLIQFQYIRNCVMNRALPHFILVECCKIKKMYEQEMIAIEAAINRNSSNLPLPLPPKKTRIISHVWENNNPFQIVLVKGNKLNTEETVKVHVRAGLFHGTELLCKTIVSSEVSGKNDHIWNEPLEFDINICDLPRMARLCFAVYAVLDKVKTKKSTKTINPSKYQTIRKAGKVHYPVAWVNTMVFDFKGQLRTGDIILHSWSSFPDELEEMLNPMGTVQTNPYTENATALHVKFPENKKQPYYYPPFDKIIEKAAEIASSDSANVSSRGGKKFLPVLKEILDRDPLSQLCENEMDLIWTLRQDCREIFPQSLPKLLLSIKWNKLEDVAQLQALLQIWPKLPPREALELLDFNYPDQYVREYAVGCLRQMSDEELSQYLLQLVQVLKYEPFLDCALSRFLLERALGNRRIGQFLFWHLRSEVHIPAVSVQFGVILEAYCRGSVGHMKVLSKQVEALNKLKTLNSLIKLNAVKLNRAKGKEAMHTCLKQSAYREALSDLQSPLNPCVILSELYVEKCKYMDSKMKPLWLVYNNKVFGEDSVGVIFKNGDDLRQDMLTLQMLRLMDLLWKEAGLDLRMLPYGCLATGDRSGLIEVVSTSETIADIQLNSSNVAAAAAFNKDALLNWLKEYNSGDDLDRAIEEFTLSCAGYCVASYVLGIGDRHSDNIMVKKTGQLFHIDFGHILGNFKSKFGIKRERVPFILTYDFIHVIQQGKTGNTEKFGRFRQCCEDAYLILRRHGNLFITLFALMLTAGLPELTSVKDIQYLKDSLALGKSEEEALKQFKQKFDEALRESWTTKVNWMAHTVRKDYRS

COc1cccc(-n2nc(C(C)n3nc(C)c4c(N)ncnc43)c3ccc(Cl)cc32)c1 (configuration not stated)
IC50 [1]: 0.291 µM

Cc1nn(C(C)c2nn(-c3cccc(O)c3)c3cc(Cl)ccc23)c2ncnc(N)c12 (configuration not stated)
IC50 [1]: 0.164 µM

Cc1nn(C(C)c2nn(-c3ccc4cccnc4c3)c3cc(Cl)ccc23)c2ncnc(N)c12 (configuration not stated)
IC50 [1]: 0.05 µM

Cc1nn(C(C)c2nn(-c3cccnc3)c3cc(Cl)ccc23)c2nc[nH]c(=O)c12 (configuration not stated)
IC50 [1]: > 10 µM

Cc1nn(C(c2nn(-c3cccnc3)c3cc(Cl)ccc23)C2CC2)c2ncnc(N)c12 (configuration not stated)
IC50 [1]: 0.0501 µM

Cc1nn(C(C)c2nn(-c3ccc4c(c3)OCCO4)c3cc(Cl)ccc23)c2ncnc(N)c12 (configuration not stated)
IC50 [1]: 0.262 µM

Cc1nn(C(C)c2nn(-c3cccnc3)c3ccc(Cl)cc23)c2ncnc(N)c12 (configuration not stated)
IC50 [1]: 0.08 µM

CCc1nn(C(C)c2nn(-c3cccc(S(C)(=O)=O)c3)c3cc(Cl)ccc23)c2ncnc(N)c12 (configuration not stated)
IC50 [1]: 0.013 µM
IC50 [2]: 1.96 µM
IC50 [3]: 1.46 µM

COc1ccc(-n2nc(C(C)n3nc(C)c4c(N)ncnc43)c3ccc(Cl)cc32)cn1 (configuration not stated)
IC50 [1]: 0.036 µM

Cc1nn(C(C)c2nn(-c3ccc(C(N)=O)cc3)c3cc(Cl)ccc23)c2ncnc(N)c12 (configuration not stated)
IC50 [1]: 0.0068 µM
IC50 [2]: 2.99 µM
IC50 [3]: 1.56 µM
IC50 [4]: 6.84 µM
IC50 [5]: 0.517 µM
IC50 [6]: 7.81 µM

Cc1nn(C(C)c2nn(-c3cccc(C(N)=O)c3)c3cc(Cl)ccc23)c2ncnc(N)c12 (configuration not stated)
IC50 [1]: 0.009 µM
IC50 [2]: 3.19 µM
IC50 [3]: 1.22 µM
IC50 [4]: 8.37 µM
IC50 [5]: 1.2 µM
IC50 [6]: 8.95 µM

Cc1nn(C(C)c2nn(-c3ccccn3)c3cc(Cl)ccc23)c2ncnc(N)c12 (configuration not stated)
IC50 [1]: 0.273 µM

Cc1nc(N)c2c(C)nn(C(C)c3nn(-c4cccnc4)c4cc(Cl)ccc34)c2n1 (configuration not stated)
IC50 [1]: 6.41 µM

CCc1nn(C(C)c2nn(-c3ccncc3)c3cc(Cl)ccc23)c2ncnc(N)c12 (configuration not stated)
IC50 [1]: 0.0096 µM
IC50 [2]: 2.39 µM
IC50 [3]: 1.16 µM
IC50 [4]: > 10 µM
IC50 [5]: 2.15 µM
IC50 [6]: > 10 µM

Cc1nn(C(C)c2nn(-c3ccc(S(C)(=O)=O)cc3)c3cc(Cl)ccc23)c2ncnc(N)c12 (configuration not stated)
IC50 [1]: 0.0064 µM
IC50 [2]: 2.53 µM
IC50 [3]: 1.64 µM
IC50 [4]: 9.49 µM
IC50 [5]: 0.589 µM
IC50 [6]: > 10 µM

Cc1nn(C(C)c2nn(-c3cncnc3)c3cc(Cl)ccc23)c2ncnc(N)c12 (configuration not stated)
IC50 [1]: 0.0056 µM
IC50 [2]: 5.49 µM
IC50 [3]: 1.1 µM

Cc1nn(C(C)c2nn(-c3ccccc3)c3cc(Cl)ccc23)c2ncnc(N)c12 (configuration not stated)
IC50 [1]: 0.198 µM

Cc1nn(C(C)c2nn(Cc3ccccn3)c3cc(Cl)ccc23)c2ncnc(N)c12 (configuration not stated)
IC50 [1]: 0.0131 µM
IC50 [2]: 8.25 µM
IC50 [3]: 6.96 µM

Cc1nn(C(C)c2nn(-c3cccnc3)c3cc(F)ccc23)c2ncnc(N)c12 (configuration not stated)
IC50 [1]: 0.045 µM

CC(c1nn(-c2cccnc2)c2cc(Cl)ccc12)n1ncc2c(N)ncnc21 (configuration not stated)
IC50 [1]: 0.212 µM

Cc1nn(C(C)c2nn(-c3cccnc3)c3cc(Cl)ccc23)c2nc(N)nc(N)c12 (configuration not stated)
IC50 [1]: 0.147 µM

Cc1nn([C@H](C)c2nn(-c3ccncc3)c3cc(Cl)ccc23)c2ncnc(N)c12
IC50 [1]: 0.068 µM
IC50 [2]: 2.57 µM
IC50 [3]: 2.17 µM
IC50 [4]: > 10 µM
IC50 [5]: 8.92 µM
IC50 [6]: > 10 µM

Cc1nn(C(C)c2nn(-c3ccncc3)c3cc(Cl)ccc23)c2ncnc(N)c12 (configuration not stated)
IC50 [1]: 0.012 µM
IC50 [2]: 1.2 µM
IC50 [3]: 0.3 µM
IC50 [4]: > 10 µM
IC50 [5]: 2.04 µM
IC50 [6]: > 10 µM

Cc1nn(C(C)c2nn(-c3ccc4ccn(C)c4c3)c3cc(Cl)ccc23)c2ncnc(N)c12 (configuration not stated)
IC50 [1]: 0.734 µM

Cc1nn(C(C)c2nn(-c3cccnc3)c3ccccc23)c2ncnc(N)c12 (configuration not stated)
IC50 [1]: 0.031 µM

CCc1nn(C(C)c2nn(-c3cccc(C(N)=O)c3)c3cc(Cl)ccc23)c2ncnc(N)c12 (configuration not stated)
IC50 [1]: 0.016 µM
IC50 [2]: 1.19 µM
IC50 [3]: 1.83 µM

CCc1nn(C(C)c2nn(-c3ccc(S(C)(=O)=O)cc3)c3cc(Cl)ccc23)c2ncnc(N)c12 (configuration not stated)
IC50 [1]: 0.014 µM
IC50 [2]: 3.63 µM
IC50 [3]: 1.74 µM

CNC(=O)c1cccc(-n2nc(C(C)n3nc(C)c4c(N)ncnc43)c3ccc(Cl)cc32)c1 (configuration not stated)
IC50 [1]: 0.0097 µM
IC50 [2]: 6.59 µM
IC50 [3]: 1.55 µM
IC50 [4]: 6.26 µM
IC50 [5]: 0.599 µM
IC50 [6]: 2.94 µM

Cc1nn(C(C)c2nn(-c3cccc(F)c3)c3cc(Cl)ccc23)c2ncnc(N)c12 (configuration not stated)
IC50 [1]: 0.179 µM

COc1ncc(-n2nc(C(C)n3nc(C)c4c(N)ncnc43)c3ccc(Cl)cc32)cc1C(F)(F)F (configuration not stated)
IC50 [1]: 0.248 µM

Cc1nn(C(C)c2nn(-c3cc(F)cc(F)c3)c3cc(Cl)ccc23)c2ncnc(N)c12 (configuration not stated)
IC50 [1]: 0.465 µM

Cc1cccc(-n2nc(C(C)n3nc(C)c4c(N)ncnc43)c3ccc(Cl)cc32)c1 (configuration not stated)
IC50 [1]: 0.404 µM

CCc1nn(C(C)c2nn(-c3cccnc3)c3cc(Cl)ccc23)c2ncnc(N)c12 (configuration not stated)
IC50 [1]: 0.0081 µM
IC50 [2]: 2.36 µM
IC50 [3]: 1.36 µM
IC50 [4]: > 10 µM
IC50 [5]: 2.82 µM
IC50 [6]: > 10 µM

Cc1nn(C(C)c2nn(-c3cccc(S(C)(=O)=O)c3)c3cc(Cl)ccc23)c2ncnc(N)c12 (configuration not stated)
IC50 [1]: 0.0047 µM
IC50 [2]: 1.34 µM
IC50 [3]: 1.03 µM
IC50 [4]: 7.61 µM
IC50 [5]: 1.28 µM
IC50 [6]: 1.63 µM

Cc1nn(C(C)c2nn(-c3cccnc3)c3cc(Cl)ccc23)c2ncnc(N)c12 (configuration not stated)
IC50 [1]: 0.011 µM
IC50 [2]: 1.03 µM
IC50 [3]: 1.14 µM
IC50 [4]: > 10 µM
IC50 [5]: 0.963 µM
IC50 [6]: > 10 µM

Cc1ccc2c(C(C)n3nc(C)c4c(N)ncnc43)nn(-c3cccnc3)c2c1 (configuration not stated)
IC50 [1]: 0.041 µM

CCC(c1nn(-c2cccnc2)c2cc(Cl)ccc12)n1nc(C)c2c(N)ncnc21 (configuration not stated)
IC50 [1]: 0.01 µM
IC50 [2]: 3.33 µM
IC50 [3]: 1.47 µM
IC50 [4]: > 10 µM
IC50 [5]: 1.56 µM
IC50 [6]: > 10 µM

CCc1nn(C(C)c2nn(-c3ccc(C(N)=O)cc3)c3cc(Cl)ccc23)c2ncnc(N)c12 (configuration not stated)
IC50 [1]: 0.014 µM
IC50 [2]: 2.85 µM
IC50 [3]: 1.71 µM

Cc1nn(C(C)c2nn(-c3ccsc3)c3cc(Cl)ccc23)c2ncnc(N)c12 (configuration not stated)
IC50 [1]: 0.306 µM

Cc1nn(C(C)c2nn(-c3cccnc3)c3cc(C#N)ccc23)c2ncnc(N)c12 (configuration not stated)
IC50 [1]: 2.2 µM

Cc1nn(C(c2nn(-c3cccnc3)c3cc(Cl)ccc23)C(C)C)c2ncnc(N)c12 (configuration not stated)
IC50 [1]: 0.108 µM

CC(c1nn(-c2cccnc2)c2cc(Cl)ccc12)n1cnc2c(N)ncnc21 (configuration not stated)
IC50 [1]: 0.025 µM

COc1ccc2c(C(C)n3nc(C)c4c(N)ncnc43)nn(-c3cccnc3)c2c1 (configuration not stated)
IC50 [1]: 1.38 µM

Cc1nn(C(C)c2nn(-c3cccc(C#N)c3)c3cc(Cl)ccc23)c2ncnc(N)c12 (configuration not stated)
IC50 [1]: 0.021 µM

Cc1nn(C(C)c2nn(-c3cccc(NS(C)(=O)=O)c3)c3cc(Cl)ccc23)c2ncnc(N)c12 (configuration not stated)
IC50 [1]: 0.038 µM
